Experimental data taken from PubChem BioAssay AID1259407 (Chemical Carcinogenesis Research Information System (CCRIS), 2018).
Calls of active or inactive are those of the source. No rule for the calls is given here.

Test system: CCRIS mutagenicity, Ames/micronucleus/aberration tests
Assay: CCRIS mutagenicity studies
[1] = Test System: AMES SALMONELLA TYPHIMURIUM, Strain/Indicator: TA98, Metabolic Activation: NONE, Method: STANDARD PLATE
[2] = Test System: AMES SALMONELLA TYPHIMURIUM, Strain/Indicator: TA100, Metabolic Activation: NONE, Method: STANDARD PLATE
[3] = Test System: AMES SALMONELLA TYPHIMURIUM, Strain/Indicator: TA1535, Metabolic Activation: NONE, Method: STANDARD PLATE
[4] = Test System: AMES SALMONELLA TYPHIMURIUM, Strain/Indicator: TA1537, Metabolic Activation: NONE, Method: STANDARD PLATE
[5] = Test System: MOUSE LYMPHOMA, Strain/Indicator: L5178Y (TK+/TK-), Metabolic Activation: NONE, Method: SUSPENSION/PLATE

Nc1ccc(N)c2c1C(=O)c1c(N)ccc(N)c1C2=O
mutagenic call (End Point: IN VITRO CHROMOSOMAL ABERRATIONS, Test System: CHO CELLS, Metabolic Activation: NONE): active; positive
mutagenic call (End Point: IN VITRO CHROMOSOMAL ABERRATIONS, Test System: CHO CELLS, Metabolic Activation: RAT, LIVER, S-9, AROCLOR 1254): active; positive
mutagenic call (Test System: AMES SALMONELLA TYPHIMURIUM, Strain/Indicator: TA97, Metabolic Activation: HAMSTER, LIVER, S-9, AROCLOR 1254 (10%), Method: PREINCUBATION): inactive; negative
mutagenic call (Test System: AMES SALMONELLA TYPHIMURIUM, Strain/Indicator: TA97, Metabolic Activation: HAMSTER, LIVER, S-9, AROCLOR 1254, Method: PREINCUBATION): active; positive
mutagenic call (Test System: AMES SALMONELLA TYPHIMURIUM, Strain/Indicator: TA97, Metabolic Activation: NONE, Method: PREINCUBATION): active; positive
mutagenic call (Test System: AMES SALMONELLA TYPHIMURIUM, Strain/Indicator: TA97, Metabolic Activation: RAT, LIVER, S-9, AROCLOR 1254 (10%), Method: PREINCUBATION): inactive; negative
mutagenic call (Test System: AMES SALMONELLA TYPHIMURIUM, Strain/Indicator: TA97, Metabolic Activation: RAT, LIVER, S-9, AROCLOR 1254, Method: PREINCUBATION): active; positive
mutagenic call (Test System: AMES SALMONELLA TYPHIMURIUM, Strain/Indicator: TA98, Metabolic Activation: HAMSTER, LIVER, S-9, AROCLOR 1254 (10%), Method: PREINCUBATION): active; positive
mutagenic call (Test System: AMES SALMONELLA TYPHIMURIUM, Strain/Indicator: TA98, Metabolic Activation: HAMSTER, LIVER, S-9, AROCLOR 1254, Method: PREINCUBATION): active; positive
mutagenic call (Test System: AMES SALMONELLA TYPHIMURIUM, Strain/Indicator: TA98, Metabolic Activation: NONE, Method: PREINCUBATION): active; positive
mutagenic call [1]: inactive; negative
mutagenic call (Test System: AMES SALMONELLA TYPHIMURIUM, Strain/Indicator: TA98, Metabolic Activation: RAT, LIVER, S-9, AROCLOR 1254 (10%), Method: PREINCUBATION): active; positive
mutagenic call (Test System: AMES SALMONELLA TYPHIMURIUM, Strain/Indicator: TA98, Metabolic Activation: RAT, LIVER, S-9, AROCLOR 1254, Method: PREINCUBATION): active; positive
mutagenic call (Test System: AMES SALMONELLA TYPHIMURIUM, Strain/Indicator: TA98, Metabolic Activation: RAT, LIVER, S-9, AROCLOR 1254, Method: STANDARD PLATE): inactive; negative
mutagenic call (Test System: AMES SALMONELLA TYPHIMURIUM, Strain/Indicator: TA100, Metabolic Activation: HAMSTER, LIVER, S-9, AROCLOR 1254 (10%), Method: PREINCUBATION): inactive; negative
mutagenic call (Test System: AMES SALMONELLA TYPHIMURIUM, Strain/Indicator: TA100, Metabolic Activation: HAMSTER, LIVER, S-9, AROCLOR 1254, Method: PREINCUBATION): inactive; negative
mutagenic call (Test System: AMES SALMONELLA TYPHIMURIUM, Strain/Indicator: TA100, Metabolic Activation: NONE, Method: PREINCUBATION): inactive; negative
mutagenic call [2]: inactive; negative
mutagenic call (Test System: AMES SALMONELLA TYPHIMURIUM, Strain/Indicator: TA100, Metabolic Activation: RAT, LIVER, S-9, AROCLOR 1254 (10%), Method: PREINCUBATION): inactive; negative
mutagenic call (Test System: AMES SALMONELLA TYPHIMURIUM, Strain/Indicator: TA100, Metabolic Activation: RAT, LIVER, S-9, AROCLOR 1254, Method: PREINCUBATION): inactive; negative
mutagenic call (Test System: AMES SALMONELLA TYPHIMURIUM, Strain/Indicator: TA100, Metabolic Activation: RAT, LIVER, S-9, AROCLOR 1254, Method: STANDARD PLATE): inactive; negative
mutagenic call (Test System: AMES SALMONELLA TYPHIMURIUM, Strain/Indicator: TA1535, Metabolic Activation: HAMSTER, LIVER, S-9, AROCLOR 1254 (10%), Method: PREINCUBATION): active; positive
mutagenic call (Test System: AMES SALMONELLA TYPHIMURIUM, Strain/Indicator: TA1535, Metabolic Activation: HAMSTER, LIVER, S-9, AROCLOR 1254, Method: PREINCUBATION): active; positive
mutagenic call (Test System: AMES SALMONELLA TYPHIMURIUM, Strain/Indicator: TA1535, Metabolic Activation: NONE, Method: PREINCUBATION): inactive; negative
mutagenic call [3]: inactive; negative
mutagenic call (Test System: AMES SALMONELLA TYPHIMURIUM, Strain/Indicator: TA1535, Metabolic Activation: RAT, LIVER, S-9, AROCLOR 1254 (10%), Method: PREINCUBATION): active; positive
mutagenic call (Test System: AMES SALMONELLA TYPHIMURIUM, Strain/Indicator: TA1535, Metabolic Activation: RAT, LIVER, S-9, AROCLOR 1254, Method: PREINCUBATION): active; positive
mutagenic call (Test System: AMES SALMONELLA TYPHIMURIUM, Strain/Indicator: TA1535, Metabolic Activation: RAT, LIVER, S-9, AROCLOR 1254, Method: STANDARD PLATE): inactive; negative
mutagenic call [4]: active; positive
mutagenic call (Test System: AMES SALMONELLA TYPHIMURIUM, Strain/Indicator: TA1538, Metabolic Activation: RAT, LIVER, S-9, AROCLOR 1254, Method: STANDARD PLATE): inactive; negative
mutagenic call [5]: active; positive

CCCCCCCCCCCC(=O)OOC(=O)CCCCCCCCCCC
mutagenic call (Test System: AMES SALMONELLA TYPHIMURIUM, Strain/Indicator: TA98, Metabolic Activation: HAMSTER, LIVER, S-9, AROCLOR 1254 (10%), Method: STANDARD PLATE): inactive; negative
mutagenic call [1]: inactive; negative
mutagenic call (Test System: AMES SALMONELLA TYPHIMURIUM, Strain/Indicator: TA98, Metabolic Activation: RAT, LIVER, S-9, AROCLOR 1254 (10%), Method: STANDARD PLATE): inactive; negative
mutagenic call (Test System: AMES SALMONELLA TYPHIMURIUM, Strain/Indicator: TA100, Metabolic Activation: HAMSTER, LIVER, S-9, AROCLOR 1254 (10%), Method: STANDARD PLATE): inactive; negative
mutagenic call [2]: inactive; negative
mutagenic call (Test System: AMES SALMONELLA TYPHIMURIUM, Strain/Indicator: TA100, Metabolic Activation: RAT, LIVER, S-9, AROCLOR 1254 (10%), Method: STANDARD PLATE): inactive; negative
mutagenic call (Test System: AMES SALMONELLA TYPHIMURIUM, Strain/Indicator: TA1535, Metabolic Activation: HAMSTER, LIVER, S-9, AROCLOR 1254 (10%), Method: STANDARD PLATE): inactive; negative
mutagenic call [3]: inactive; negative
mutagenic call (Test System: AMES SALMONELLA TYPHIMURIUM, Strain/Indicator: TA1535, Metabolic Activation: RAT, LIVER, S-9, AROCLOR 1254 (10%), Method: STANDARD PLATE): inactive; negative
mutagenic call (Test System: AMES SALMONELLA TYPHIMURIUM, Strain/Indicator: TA1537, Metabolic Activation: HAMSTER, LIVER, S-9, AROCLOR 1254 (10%), Method: STANDARD PLATE): inactive; negative
mutagenic call [4]: inactive; negative
mutagenic call (Test System: AMES SALMONELLA TYPHIMURIUM, Strain/Indicator: TA1537, Metabolic Activation: RAT, LIVER, S-9, AROCLOR 1254 (10%), Method: STANDARD PLATE): inactive; negative
mutagenic call (Test System: AMES SALMONELLA TYPHIMURIUM, Strain/Indicator: TA1538, Metabolic Activation: HAMSTER, LIVER, S-9, AROCLOR 1254 (10%), Method: STANDARD PLATE): inactive; negative
mutagenic call (Test System: AMES SALMONELLA TYPHIMURIUM, Strain/Indicator: TA1538, Metabolic Activation: NONE, Method: STANDARD PLATE): inactive; negative
mutagenic call (Test System: AMES SALMONELLA TYPHIMURIUM, Strain/Indicator: TA1538, Metabolic Activation: RAT, LIVER, S-9, AROCLOR 1254 (10%), Method: STANDARD PLATE): inactive; negative
mutagenic call [5]: inactive; negative. reevaluation of results: inconclusive
mutagenic call (Test System: MOUSE LYMPHOMA, Strain/Indicator: L5178Y (TK+/TK-), Metabolic Activation: RAT, LIVER, S-9, AROCLOR 1254, Method: SUSPENSION/PLATE): inactive; negative. reevaluation of results: inconclusive
